Test results published in patent US11904040B2, “Zinc-amino acid-lauryl sulfate complex with antimicrobial activity” (Colgate-Palmolive Company, priority 2018, dated 2024).

Tests used:
[1] = Potentiometric titration, stability constants of the Zn, Lysine, SLS system; conditions: 25C, 50:50 glycerin:de-ionized water, 100 mM KNO3, 5 mM Zn
S. mutans = test: Metabolic inhibition of S. mutans (autotitrator base consumption after glucose); type: cell-based; conditions: for % Metabolic Reduction: S. mutans in 135 mM KCl, final zinc concentration 2.5 ppm (SLS equimolar to LS in Zn(Lys)2(LS)2), pH 7, 30 minutes, vs control containing only bacteria
Method: The chelation of zinc can modify its efficacy as an antibacterial agent. […] S. mutans is one of the prevalent bacteria present in the oral cavity. A concentrated suspension of S. mutans in 135 mM KCl was treated with a known concentration of zinc salt to obtain a final zinc concentration of 2.5 ppm. […] Using an autotitrator (Methrom Titrando 902) equipped with a 0.01M solution of KOH, the bacterial suspension was equilibrated to pH=7. After equilibrating, glucose was added to the solution. The autotitrator maintained the pH at 7 through the precise addition of KOH solution. The experiment was allowed to proceed for 30 minutes and the volume of base added was recorded at 10 second intervals. After 30 mins, a growth curve of base addition over time was obtained. The area under this curve was compared to the area under the curve for a control sample containing only bacteria and used to calculate a % reduction value. The control sample was analyzed from the same bacterial suspension as the test sample and the two samples were analyzed within 3 hours of each other. In order for data from a given suspension of S. mutans to be included, the control sample must consume at least 5 mL of base solution during the 30 minute time period.

NCCCC[C@H](N)C(=O)O [HLys]
Log(B) stability constant [1]: 10.07

CCCCCCCCCCCCOS(=O)(=O)[O-].[Na+] [Sodium lauryl sulfate, sodium lauryl sulfate]
% Metabolic Reduction (S. mutans): 34.12 ± 1.56%

NCCCCC(N)C(=O)O.NCCCCC(N)C(=O)O.[Cl-].[Cl-].[Zn+2] (stereo not shown) [ZLC, [Zn(C6H14N2O2)2Cl]^+Cl^−]
% Metabolic Reduction (S. mutans): 53.90 ± 2.36%

O=[N+]([O-])[O-].O=[N+]([O-])[O-].[Zn+2] [Zn(NO3)2]
% Metabolic Reduction (S. mutans): 67.16 ± 2.49%

zinc arginate [[Zn(Arg)2]^2+]
% Metabolic Reduction (S. mutans): 67.19 ± 0.32%

zinc-arginine-lauryl sulfate [Zn(Arg)2(LS)2]
% Metabolic Reduction (S. mutans): 72.53 ± 3.76% | antibacterial performance compared to corresponding zinc-amino acid complex (S. mutans; S. mutans metabolic reduction, Table 10): directionally improved antibacterial performance compared to [Zn(Arg)2]^2+
